Results reported in patent publication US20230293551A1, “USE OF OXYGENATED CHOLESTEROL SULFATES FOR TREATING AUTOIMMUNE CONDITIONS” (Durect Corporation, priority 2020, published 2023).

What was measured:
[1] = Tissue distribution by quantitative whole body autoradiography after oral dose; assay type: in vivo, male Sprague Dawley rats; details: oral 75 mg/kg
[2] = Plasma pharmacokinetics of radioactivity after single intravenous dose; assay type: in vivo, male Sprague Dawley rats; details: single intravenous (bolus) dose 10 mg/kg
Text: (§1) The objectives of this study were to determine the plasma pharmacokinetics of [4-^14C]-25HC3S-derived radioactivity in male Sprague Dawley rats, determine the routes of elimination and excretion mass balance of [4-^14C]-25HC3S-derived radioactivity in male Sprague Dawley rats, determine the tissue distribution and tissue pharmacokinetics of [4-^14C]-25HC3S-derived radioactivity using quantitative whole body autoradiography methods in male Sprague Dawley and Long Evans rats following a single intravenous (bolus) dose, and to provide plasma, urine, and fecal homogenate samples for metabolite profiling of [4-^14C]-25HC3S-derived radioactivity.
(§2) Nine male Sprague Dawley rats (Group 1) were designated for the pharmacokinetic phase, 3 male Sprague Dawley rats (Group 2) for the excretion mass balance phase, and 7 male Sprague Dawley rats (Group 3) and 9 male Long Evans rats (Group 4) for the tissue distribution phase. All animals received a single intravenous dose of [^14C]-25HC3S at 10 mg/kg and a target radioactivity of 225 µCi/kg. […] Following blood collection, animals were euthanized by CO2 inhalation and carcasses frozen in a dry ice/hexane bath for processing by quantitative whole body autoradiography. Whole blood, plasma, urine, feces, cage rinse, and cage wash were analyzed for total radioactivity by liquid scintillation counting.

[3] = Tissue distribution by quantitative whole body autoradiography after intravenous dose; assay type: in vivo, male Sprague Dawley rats; details: intravenous 10 mg/kg
Text: as §1
as §2, with “µCi/kg. Blood samples were collected from all Group 1 animals at approximately 0.083, 0.25, 0.5, 1, 2, 4, 8, 12, 24, 48, and 72 hours post-dose. Urine and feces were collected from all Group 2 animals periodically through 168 hours post-dose.” for “µCi/kg.”

[4] = Plasma pharmacokinetics of radioactivity after single oral (gavage) dose; assay type: in vivo, rats; details: single oral (gavage) dose 75 mg/kg
Protocol: The terminal elimination phase T½ was 27.3 hours.

[5] = Tissue distribution after intravenous dose in pigmented rats; assay type: in vivo, male Long Evans rats; details: intravenous 10 mg/kg, first 168 hours post-dose
Text: as §1, §2

[6] = Excretion mass balance after single intravenous dose; assay type: in vivo, male Sprague Dawley rats; details: intravenous 10 mg/kg, over 168 hours
Text: as §1, §2

DNMT1/3a/3b = test: Enzyme kinetic study, overall statements on DNMT1/3a/3b activities; assay type: biochemical
Protocol: (§3) For the DNMT1 activity assay, the substrate solution, 0.001 mg/ml Poly(dI-dC):Poly(dI-dC) in 50 mM Tris-HCl, pH 7.5, 50 mM NaCl, 5 mM EDTA, 5 mM DTT, 1 mM PMSF, 5% glycerol, 0.01% Brij35, 1% DMSO was used. For the DNMT3a/3b activity assay, 0.0075 mg/ml Lambda DNA in 50 mM Tris-HCl, pH 7.5, 50 mM NaCl, 5 mM EDTA, 5 mM DTT, 1 mM PMSF, 5% glycerol, 1% DMSO, was used. The indicated DNMT1, DNMT3a, or DNMT3b was added to the appropriate substrate solution and gently mixed. […] The mixtures were first incubated for 15 min, then ^3H-SAM was added to the reaction mixture to initiate the reaction, and the mixture was incubated for 60 min at 30° C. Following incubation, the reaction mixture was finally transferred to filter-paper for detection of radioactivity counts.

[7] = Metabolite profiling of plasma, urine, feces after intravenous dose; assay type: in vivo, rats
Protocol: as §2, with “µCi/kg. Blood samples were collected from all Group 1 animals at approximately 0.083, 0.25, 0.5, 1, 2, 4, 8, 12, 24, 48, and 72 hours post-dose. Urine and feces were collected from all Group 2 animals periodically through 168 hours post-dose.” for “µCi/kg.”

DNMT1 = DNMT1 (Homo sapiens, UniProt P26358); test: DNMT1 activity assay (3H-SAM, filter-paper radioactivity); assay type: biochemical
Sequence of DNMT1 (P26358 whole entry, species assumed): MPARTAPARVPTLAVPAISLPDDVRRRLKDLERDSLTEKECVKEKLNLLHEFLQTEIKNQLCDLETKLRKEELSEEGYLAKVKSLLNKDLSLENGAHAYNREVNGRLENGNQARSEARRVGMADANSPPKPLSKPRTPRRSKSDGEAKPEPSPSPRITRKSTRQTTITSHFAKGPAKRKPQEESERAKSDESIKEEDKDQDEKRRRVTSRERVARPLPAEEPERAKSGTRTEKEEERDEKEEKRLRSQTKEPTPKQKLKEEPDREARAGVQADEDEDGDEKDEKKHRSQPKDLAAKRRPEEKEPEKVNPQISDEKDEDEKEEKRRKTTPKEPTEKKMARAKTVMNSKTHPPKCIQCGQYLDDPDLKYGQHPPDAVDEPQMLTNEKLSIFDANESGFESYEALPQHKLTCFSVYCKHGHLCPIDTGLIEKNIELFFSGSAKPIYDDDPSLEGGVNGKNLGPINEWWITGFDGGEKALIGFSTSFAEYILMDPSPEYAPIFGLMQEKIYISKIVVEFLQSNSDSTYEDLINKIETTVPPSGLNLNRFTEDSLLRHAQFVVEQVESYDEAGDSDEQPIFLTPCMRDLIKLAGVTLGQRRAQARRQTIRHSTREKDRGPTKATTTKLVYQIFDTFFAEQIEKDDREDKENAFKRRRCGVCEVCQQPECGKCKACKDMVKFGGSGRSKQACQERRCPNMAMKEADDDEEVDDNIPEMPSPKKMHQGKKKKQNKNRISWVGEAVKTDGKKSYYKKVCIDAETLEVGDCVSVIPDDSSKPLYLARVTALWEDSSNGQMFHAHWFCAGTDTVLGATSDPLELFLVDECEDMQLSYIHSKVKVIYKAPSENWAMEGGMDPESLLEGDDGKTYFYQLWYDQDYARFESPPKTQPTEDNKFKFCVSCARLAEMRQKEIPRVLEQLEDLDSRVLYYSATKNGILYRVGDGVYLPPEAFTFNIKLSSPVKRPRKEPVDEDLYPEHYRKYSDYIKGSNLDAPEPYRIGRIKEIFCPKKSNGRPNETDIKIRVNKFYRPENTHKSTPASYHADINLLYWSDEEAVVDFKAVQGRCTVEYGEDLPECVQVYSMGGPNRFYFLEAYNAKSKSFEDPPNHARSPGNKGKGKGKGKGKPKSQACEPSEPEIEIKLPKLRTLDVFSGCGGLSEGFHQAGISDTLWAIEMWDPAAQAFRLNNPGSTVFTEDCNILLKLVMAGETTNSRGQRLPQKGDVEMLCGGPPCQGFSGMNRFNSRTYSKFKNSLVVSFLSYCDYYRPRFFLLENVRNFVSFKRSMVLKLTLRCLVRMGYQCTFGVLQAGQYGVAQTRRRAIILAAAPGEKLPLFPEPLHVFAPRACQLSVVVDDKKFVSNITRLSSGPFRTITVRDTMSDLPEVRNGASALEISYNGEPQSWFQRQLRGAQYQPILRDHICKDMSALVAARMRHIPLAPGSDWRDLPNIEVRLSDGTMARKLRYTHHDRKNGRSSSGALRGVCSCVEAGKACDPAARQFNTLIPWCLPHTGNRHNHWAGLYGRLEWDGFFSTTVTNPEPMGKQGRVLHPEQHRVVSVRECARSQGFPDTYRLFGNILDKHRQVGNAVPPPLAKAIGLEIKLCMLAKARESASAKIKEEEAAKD
Protocol: as §3

[8] = Metabolite profiling of plasma and feces after oral dose; assay type: in vivo, rats; details: oral 75 mg/kg
Text: Radiolabeled components in plasma and feces extracts were profiled and identified using radio-high performance liquid chromatography (HPLC) and high performance liquid chromatography/mass spectrometry (HPLC/MS) methods.

## C[C@H](CCCC(C)(C)O)[C@H]1CC[C@H]2[C@@H]3CC=C4[14CH2][C@@H](OS(=O)(=O)O)CC[C@]4(C)[C@H]3CC[C@]12C [[4-^14C]-25HC3S]
[1]
  Uveal tract and brain concentrations: approximately 1000 ng equiv./g
  plasma:whole blood AUClast ratio: 1.12
  tissue Tmax: ≤ 6 hours postdose
  tissue distribution of radioactivity: broadly distributed and detected by quantitative whole body autoradiography in all tissues except the eye (lens)
  whole blood AUClast: 127,000 h•ng equiv./g
[1]; calculated using AUClast
  tissue:plasma ratio, adrenal gland: 6.64
  tissue:plasma ratio, liver: 6.96
  tissue:plasma ratio, small intestine (wall): 15.4
[2]
  terminal elimination phase T½: 26.6 h
[3]
  AUClast in the liver: ≤ 364,000 h.ng/g
  plasma:whole blood AUClast ratio: 0.79
  tissue distribution of radioactivity: broadly distributed and detected by quantitative whole body autoradiography in all tissues except the eye (lens)
[3]; calculated using AUClast
  tissue:plasma ratio, liver: 11.4
  tissue:plasma ratio, small intestine (wall): 7.44
[4]
  plasma AUClast: 96,400 h•ng equiv./g
[5]
  plasma or whole blood concentrations versus Sprague Dawley rats: no substantial difference in plasma or whole blood concentrations
[6]
  recovered radioactivity in feces: 83.0%

## CC(C)CCC[C@@H](C)[C@H]1CC[C@H]2[C@@H]3CC=C4C[C@@H](OS(=O)(=O)O)CC[C@]4(C)[C@H]3CC[C@]12C [Xol3S, Cholesterol 3-Sulfate, reference compound]
DNMT1/3a/3b
  effect on enzymatic activities (DNMTs): did not significantly affect enzymatic activities

## desmosterol sulfate
[7]
  detection in plasma, urine, or feces samples: Neither desmosterol sulfate nor 25-hydroxycholesterol was detected

## C[C@@H](CO)CCC[C@@H](C)[C@H]1CC[C@H]2[C@@H]3CC=C4C[C@@H](O)CC[C@]4(C)[C@H]3CC[C@]12C [27HC, 27-Hydroxycholesterol, reference compound]
DNMT1/3a/3b
  effect on enzymatic activities (DNMTs): had no effect on other enzymes

## C[C@H](CCCC(C)(C)O)[C@H]1CC[C@H]2[C@@H]3CC=C4C[C@@H](O)CC[C@]4(C)[C@H]3CC[C@]12C [25HC, 25-Hydroxycholesterol]
DNMT1
  activates DNMT-1 activity: 8 fold
[8]; 2 hour postdose plasma
  relative observed intensity (ROI) in plasma: 37%
[8]; pools 0 to 168 hours postdose
  % of total dose in feces: 1.9 % of total dose
[7]
  detection in plasma, urine, or feces samples: Neither desmosterol sulfate nor 25-hydroxycholesterol was detected

## CC(C)CCC[C@@H](C)[C@H]1CC[C@H]2[C@@H]3CC=C4C[C@@H](O)CC[C@]4(C)[C@H]3CC[C@]12C [Xol, Cholesterol]
DNMT1/3a/3b
  effect on enzymatic activities (DNMTs): did not significantly affect enzymatic activities

## CC(CO)CCC[C@@H](C)[C@H]1CC[C@H]2[C@@H]3CC=C4C[C@@H](OS(=O)(=O)O)CC[C@]4(C)[C@H]3CC[C@]12C (stereo partly drawn) [27HC3S, 27-hydroxycholesterol-3-sulfate]
DNMT1/3a/3b
  effect on enzymatic activities (DNMTs): potent inhibitors of DNMTs

## C[C@H](CCCC(C)(C)O)[C@H]1CC[C@H]2[C@@H]3CC=C4C[C@@H](OS(=O)(=O)O)CC[C@]4(C)[C@H]3CC[C@]12C [25HC3S, 25-hydroxycholesterol-3-sulfate]
DNMT1/3a/3b
  effect on enzymatic activities (DNMTs): potent inhibitors of DNMTs
DNMT1/3a/3b; DNMT-1, 3a, 3b, read-out: IC50s (kinetic study)
  IC50: 1 to 10 µM
[7]; pools 0 to 48 hours postdose
  % of dose in feces: 2 % of dose
[7]; up to 1 hour postdose
  share of the exposure (AUC) to 25HC3S related radioactivity in plasma: approximately 54%
